Measured values published in US20030026831A1, “Anionic liposomes for delivery of bioactive agents” (priority 2001, published 2003).
{Cy3} = Cy3 fluorescent dye label

Assays:
[1] = test system: Mouse embryonic fibroblasts (MEF-1); assay: Uptake of Cy3-ONs by LRP-expressing MEF-1 cells; assay type: cell-based; details: 1 μM Cy3-ONs, 1 h at 37° C.
Protocol: (§1) The ability of this delivery system to deliver DNA to cell types other than neurons was investigated by studying uptake of Cy3-oligonucleotides delivered by anionic DOPC/DOPG liposomes in cells derived from a variety of tissues. CHO, HeLa, HuH-7, MDCK and MEF-1 cells all avidly internalized AL-Cy3ONs within 1 h of incubation (FIG. 2). Uptake of AL-Cy3ONs occurred in the presence of serum in the culture medium. Similar to the uniform uptake seen in primary neurons, Cy3 fluorescence was visible in almost all cells exposed to AL-Cy3ONs in all cell types studied (Table 1). On the other hand, uptake of Cy3ON either without a delivery vector or complexed to cationic DC-Chol/DOPE liposomes was cell type-dependent, ranging from ˜5% in MDCK cells to ˜50% in HeLa cells (Table 1).
The endocytosis of AL-Cy3ONs in immortalized mouse embryonic fibroblast cell lines that expressed LRP (MEF-1) was compared to endocytosis of AL-Cy3ONs in immortalized mouse embryonic fibroblast cell lines that lacked the receptor (PEA-13).

[2] = test system: Human cervical carcinoma (HeLa); assay: Uptake of Cy3-ONs by HeLa cells; assay type: cell-based; details: 1 μM Cy3-ONs, 1 h at 37° C.
Protocol: as §1

hippocampal neurons [3] = assay: Colocalization with dextran (late endosomes and lysosomes); assay type: cell-based, rat; details: 3 h, delivered in anionic liposomes
Protocol: (§2) Colocalization of Lipids and Oligonucleotides with Transferrin and Dextran. Intracellular fates of endocytosed liposomes and ONs were determined by comparing their intracellular distributions with that of Oregon Green 488-Transferrin (OG-Tf) and Alexa488-dextran (Molecular Probes, Eugene, Oreg.) used as markers for the recycling and lysosomal compartments, respectively. Neurons were incubated with AL-Cy3ONs and either 100 μg/ml OG-Tf, for 30 minutes, 1 hour or 3 hours; or with 1 mg/ml Alexa488-dextran for 3 hours. For the lipid transport experiments, neurons were incubated with liposomes labeled with N—Rh-DOPE and either OG-TF, for 30 minutes, 1 hour, or 3 hours; or with 1 mg/ml Alexa-dextran for 3 hours. In another set of experiments, neurons were incubated with AL-Cy3ONs for 30 minutes, rinsed and chased with 1 mg/ml Alexa 488 dextran for 3 hours. Cells were rinsed and fixed for imaging as described above.
Confocal Microscopy and Image Analysis. Imaging was performed on a Leica TCS 4D confocal microscope (Deerfield, Ill.) equipped with a Mercury/Xenon lamp and argon/krypton laser. Cells were excited using the 488 nm laser line to detect Oregon Green 488-Transferrin and Alexa488-Dextran, and the emitted fluorescence was collected using a 515 long-pass filter. The 568 nm laser line was used to excite Cy3 and N—Rh-DOPE (LP590 emission). Cells were imaged at a plane midway between the substrate-attached plasma membrane and the top of the cell, such that neuronal nuclei were clearly identifiable. In some cases, the entire volume of the cell was scanned in 0.5 μm increments. […]
(§3) All image analysis was performed using the METAMORPH Imaging System software (Universal Imaging, Downington, Pa.). The cell outlines for each set of double-labeled fields were traced out manually in the corresponding differential interference contrast image and then used to mask the fluorescence images. In each cell, the total fluorescence intensity was measured and the percent of Cy3 label or rhodamine label that colocalized with transferrin or dextran was calculated.

[4] = test system: Chinese hamster ovary cell line (CHO-K1); assay: Uptake of Cy3-ONs by CHO-K1 cells; assay type: cell-based; details: 1 μM Cy3-ONs, 1 h at 37° C.
Protocol: as §1

hippocampal neurons [5] = assay: Colocalization with transferrin (early and recycling endosomes); assay type: cell-based, rat; details: delivered in anionic liposomes
Protocol: as §2
(§4) Confocal Microscopy and Image Analysis. Imaging was performed on a Leica TCS 4D confocal microscope (Deerfield, Ill.) equipped with a Mercury/Xenon lamp and argon/krypton laser. Cells were excited using the 488 nm laser line to detect Oregon Green 488-Transferrin and Alexa488-Dextran, and the emitted fluorescence was collected using a 515 long-pass filter. The 568 nm laser line was used to excite Cy3 and N—Rh-DOPE (LP590 emission). Cells were imaged at a plane midway between the substrate-attached plasma membrane and the top of the cell, such that neuronal nuclei were clearly identifiable. In some cases, the entire volume of the cell was scanned in 0.5 μm increments. Optimal images were obtained by averaging 16 images in the line-scan mode at the same fixed gains for all experiments. All fluorescent images presented in figures were equally contrast enhanced using ADOBE PHOTOSHOP (Adobe, Mountain View, Calif.).
as §3

Human hepatoma (Huh-7) = assay: Uptake of Cy3-ONs by Huh-7 cells; assay type: cell-based; details: 1 μM Cy3-ONs, 1 h at 37° C.
Protocol: as §1

[6] = test system: Primary rat hippocampal neurons; assay: Uptake of Cy3-ONs by hippocampal neurons; assay type: cell-based
Protocol: Hippocampal Cell Culture. Primary cultures of hippocampal neurons were prepared from neonatal rat pups (P1 or P2) as previously described (Dubinsky, 1993). Neurons were plated onto 22-mm square glass coverslips coated with collagen and polylysine, at a density of 150,000 cells per coverslip. Neurons were cultured for 24-30 hours in minimum essential medium (MEM) with 10% NUSERUM (Collaborative Research) to increase attachment to the glass substrate, after which the growing medium was replaced with Neurobasal medium with B27 supplements (Life Technologies, Rockville, Md.). Fluorodeoxyuridine (15 μg/ml) was added to restrict the growth of non-neuronal cells. Cultures were maintained at 37° C. in a humidified atmosphere containing 5% CO2 for 6-9 days before use.
Uptake of Cy3-ONs by hippocampal neurons. […] Uninternalized ONs, liposomes or complexes were removed by several washes with L15 (Leibovitz's) medium. Cells were then fixed in 4% paraformaldehyde for 15 minutes at room temperature. For low temperature studies, neurons were incubated at 4° C. with AL-Cy3ONs for 10 minutes and then fixed. The cells were imaged immediately after fixation to avoid a potential redistribution of ONs (Grzanna et al., 1998).
as §4, with “All fluorescent images presented in figures were equally contrast enhanced using ADOBE PHOTOSHOP (Adobe, Mountain View, Calif.).” left out

[7] = test system: Canine kidney cell line (MDCK); assay: Uptake of Cy3-ONs by MDCK cells; assay type: cell-based; details: 1 μM Cy3-ONs, 1 h at 37° C.
Protocol: as §1

Substance: Cy3-ONs without delivery system: 18-mer 5′-CTGTGAATCCTCCATGAC-3′ (SEQ ID NO:2), targets rat p53 mRNA, labeled at the 5′-end with Cy3 (DNA, 5' {Cy3}, backbone not given here; listed as Rattus norvegicus)
- Percent of cells with intracellular Cy3 fluorescence [1]: 20%
- Percent of cells with intracellular Cy3 fluorescence [2]: 51.5%
- Percent of cells with intracellular Cy3 fluorescence ([2]; listed as Cy3ON without a delivery vector): ~50%
- Percent colocalization with Dextran (hippocampal neurons [3]; listed as Cy3ON): 20.13 ± 1.8%
- Percent colocalization with Dextran (hippocampal neurons [3]; listed as Cy3ONs): 20%
- Percent of cells with intracellular Cy3 fluorescence [4]: 17%
- Percent colocalization with Transferrin (hippocampal neurons [5]; 30 min, listed as Cy3ON): 14.86 ± 1%
- Percent colocalization with Transferrin (hippocampal neurons [5]; 30 min, listed as Cy3ONs): 15%
- Percent colocalization with Transferrin (hippocampal neurons [5]; 1 h): 22.67 ± 1.7%
- Percent colocalization with Transferrin (hippocampal neurons [5]; 3 h, listed as Cy3ON): 24.62 ± 2%
- Percent colocalization with Transferrin (hippocampal neurons [5]; 3 h, listed as Cy3ONs): ≤ 25%
- Percent of cells with intracellular Cy3 fluorescence (Human hepatoma (Huh-7)): 18.3%
- Uptake of Cy3-ONs by neurons ([6]; 1 μM Cy3-ONs, 1 h, serum-containing medium): taken up by a low percentage of neurons
- Neuronal Cy3 fluorescence ([6]; 2 μM Cy3ONs, 30 minutes at 37° C.): low level of diffuse cellular fluorescence in only a small percent of cells
- Percent of cells with intracellular Cy3 fluorescence ([6]; Primary rat hippocampal neurons, 1 μM Cy3-ONs, 1 h at 37° C.): 6%
- Percent of cells with intracellular Cy3 fluorescence [7]: ~5%
